Measurements taken from ChEMBL document CHEMBL5257083, “Identification of a Noxo1 inhibitor by addition of a polyethylene glycol chain” (Bioorg Med Chem, 2023).
Active and inactive are the calls of the source. No cut-off for these calls is given here.

How the values were obtained:
[1] = Inhibition of 6His tagged NOXO1 (149 to 286 residues) (unknown origin) expressed in Escherichia coli BL21 (DE3)-CYBA (unknown origin) protein-protein interaction assessed as apparent dissociation constant at 200 uM by isothermal titration calorimetry; design: species or system Homo sapiens; conditions: read-out: Kd(app)
[2] = Cytotoxicity against human Keratinocyte assessed as cell viability at 1 uM incubated for 48 hrs by MTT assay (reference value: 100 + /-7 %); type: toxicity, cell-based; conditions: keratinocytes, read-out: Activity
[3] = Cytoprotective activity in human Keratinocyte assessed as fold decrease in UV-radiation induced DNA damage preincubated for 24 hrs followed by UV exposure and measured after 24 hrs by immunohistological analysis; type: functional; conditions: time 48 hrs
Keratinocyte [4] = experiment: Cytotoxicity against human Keratinocyte incubated for 48 hrs by MTT assay; type: toxicity, cell-based
Homo sapiens = species on record: Homo sapiens; experiment: Inhibition of 6His tagged NOXO1 (149 to 286 residues) (unknown origin) expressed in Escherichia coli BL21 (DE3)-CYBA (unknown origin) protein-protein interaction by MALDI-TOF-MS analysis
[5] = Cytoprotective activity in human Keratinocyte assessed as decrease in UV-radiation induced DNA damage by measuring CPD intensity preincubated for 24 hrs followed by UV exposure and measured after 24 hrs by immunohistological analysis (reference value: 0.003 a.u.); type: functional; conditions: time 48 hrs
Keratinocyte [6] = experiment: Cytoprotective activity in human Keratinocyte assessed as effect on CPD intensity incubated for 24 hrs by immunohistological analysis; type: functional, cell-based
[7] = molecular target: T1, NADPH oxidase organizer 1 (Homo sapiens) (UniProt Q8NFA2); experiment: Binding affinity to 6His tagged NOXO1 (149 to 286 residues) (unknown origin) expressed in Escherichia coli BL21 (DE3) assessed as change in enthalpy at 800 uM by isothermal titration calorimetry
T1 sequence (whole entry): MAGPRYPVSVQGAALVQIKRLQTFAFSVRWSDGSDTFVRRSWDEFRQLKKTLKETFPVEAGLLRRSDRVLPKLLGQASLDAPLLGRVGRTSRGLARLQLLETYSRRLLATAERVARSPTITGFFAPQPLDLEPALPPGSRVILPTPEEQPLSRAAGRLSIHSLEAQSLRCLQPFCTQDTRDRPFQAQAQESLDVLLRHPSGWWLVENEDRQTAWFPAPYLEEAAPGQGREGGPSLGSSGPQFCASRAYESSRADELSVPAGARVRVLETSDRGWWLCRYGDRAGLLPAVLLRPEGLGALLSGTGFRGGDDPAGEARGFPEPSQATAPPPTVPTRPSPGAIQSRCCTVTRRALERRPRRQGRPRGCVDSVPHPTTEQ

[8] = Inhibition of 6His tagged NOXO1 (149 to 286 residues) (unknown origin) expressed in Escherichia coli BL21 (DE3)-CYBA (unknown origin) protein-protein interaction assessed as apparent dissociation constant at 800 uM by isothermal titration calorimetry; design: species or system Homo sapiens; conditions: read-out: Kd(app)

| Compound | Kd [1] [µM] | viability at 48 h, 1 µM [2] [%] | fold change (FC) [3] | Activity (Keratinocyte [4]) | inhibition (Homo sapiens) | Activity [5] [a.u.] | Activity (Keratinocyte [6]) | deltaH [7] [kcal/mol] | Kd [8] [µM] |
| --- | --- | --- | --- | --- | --- | --- | --- | --- | --- |
| COCCOCCC(=O)N(C)Cc1ccccc1 | 2.3 |  |  |  |  |  |  |  |  |
| NC(=O)c1cccc(-c2ccccc2NCC2CCN(C(=O)CCOCCOCCOCCOCCNC(=O)CCCC[C@H]3SC[C@H]4NC(=O)N[C@H]43)CC2)c1 | 39 | 101 | 175 | Non-Toxic | Active | 0.004 | inactive | 5.2 |  |
| COCCOCCC(=O)N1CCC(CNc2ccccc2-c2cccc(C(N)=O)c2)CC1 | 44 |  |  |  |  |  |  |  |  |
| NC(=O)c1cccc(-c2ccccc2NCC2CCNCC2)c1 |  | 106 |  | Non-Toxic |  |  |  |  | 4.1 |
